The first experiment has as its target T1, PSMA (target cells: LNCaP cells) (Homo sapiens, UniProt Q04609).
T1 construct: Target cells: LNCaP cells (typically 1000-20,000 cells per well); endogenous in cells; host or cells: LNCaP cells (target cells); Jurkat FcγRIIIa/NFAT-luciferase reporter cells also in the well
Put plainly: Antibody dependent cellular cytotoxicity (ADCC) reporter assay. Conditions: anti-cotinine antibody (SEQ ID NO: 11/12), Jurkat FcγRIIIa NFAT-luciferase reporter cells, 12-18 hours, EC50 in molar, average if more than one run. Also noted: key to ADCC Reporter Assay pEC50: Inactive: inactive = pEC50 < 5. The class given is cell-based. The protocol: An antibody dependent cellular cytotoxicity (ADCC) reporter assay was conducted using the following four assay components: (i) ARM compound of Formula (I) targeting PSMA (concentrations ranging from 1 pM to 10 μM); (ii) anti-cotinine antibody having a heavy chain sequence of SEQ ID NO: 11 and a light chain sequence of SEQ ID NO: 12 (rabbit variable region with human IgG1 Fc domain containing DE mutation (S239D/I332E)) (concentrations ranging from 0.01 μg/mL-200 μg/mL); (iii) Target cells: LNCaP cells (typically 1000-20,000 cells per well); and (iv) Reporter cells—Jurkat cells engineered to express FcγRIIIa with a reporter gene luciferase under the control of the NFAT promoter (typically 3000-75,000 cells per well). Reagents were combined in final volume of 20 μL in 384—well tissue culture treated plate. All four assay components were incubated together for about 12-18 hours. Thereafter, BioGlo Detection reagent (Promega) was added to the wells to lyse the cells and provide a substrate for the luciferase reporter protein.
Luminescence signal was measured on a microplate reader capable of measuring luminescence and signal: background was calculated by dividing the signal of a test well by the signal obtained when no compound of formula (I) was included in the assay. EC50 calculations were done using Graphpad Prism Software, specifically a nonlinear regression curve fit (Y=Bottom+(Top−Bottom)/(1+10^((Log EC50−X)*HillSlope))).
ARMs compounds of Formula (I) were tested for ADCC activity in the above assay in one or more experimental runs and the results are shown in Table 3 below. Potency of the compounds of Formula (I) is reported as a pEC50 values. The pEC50 value is the negative log of the EC50 value, wherein the EC50 value is half maximal effective concentration measured in molar (M). For compounds tested in more than one experimental run, the pEC50 value is reported as an average.
In general terms: In a reporter assay the amount or activity of a reporter protein is the signal.
T1 sequence (Q04609 whole entry): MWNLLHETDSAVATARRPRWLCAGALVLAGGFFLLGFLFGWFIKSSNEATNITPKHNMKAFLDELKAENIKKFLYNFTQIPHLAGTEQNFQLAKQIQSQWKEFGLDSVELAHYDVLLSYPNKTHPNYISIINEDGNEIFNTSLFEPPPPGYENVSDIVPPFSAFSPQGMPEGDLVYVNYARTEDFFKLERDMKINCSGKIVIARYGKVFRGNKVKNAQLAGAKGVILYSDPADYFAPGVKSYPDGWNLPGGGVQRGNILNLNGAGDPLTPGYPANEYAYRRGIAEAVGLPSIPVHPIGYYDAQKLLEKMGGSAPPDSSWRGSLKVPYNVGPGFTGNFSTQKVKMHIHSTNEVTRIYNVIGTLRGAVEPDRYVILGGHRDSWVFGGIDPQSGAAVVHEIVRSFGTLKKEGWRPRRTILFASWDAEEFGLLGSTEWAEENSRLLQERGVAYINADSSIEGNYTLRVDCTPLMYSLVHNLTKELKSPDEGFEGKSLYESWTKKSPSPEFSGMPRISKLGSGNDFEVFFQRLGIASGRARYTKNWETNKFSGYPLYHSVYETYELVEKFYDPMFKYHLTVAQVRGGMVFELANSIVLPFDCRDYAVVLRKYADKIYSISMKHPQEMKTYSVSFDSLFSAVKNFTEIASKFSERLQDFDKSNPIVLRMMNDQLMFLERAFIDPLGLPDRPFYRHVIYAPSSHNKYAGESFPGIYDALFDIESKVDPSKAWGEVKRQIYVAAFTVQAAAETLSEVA
For `CN1C(=O)C[C@H](C(=O)N[C@@H](Cc2ccc3ccccc3c2)C(=O)NCCCC[C@H](NC(=O)N[C@@H](CCC(=O)O)C(=O)O)C(=O)O)[C@H]1c1cccnc1` [Example 10, (((S)-1-Carboxy-5-((S)-2-((2S,3S)-1-methyl-5-oxo-2-(pyridin-3-yl)pyrrolidine-3-carboxamido)-3-(naphthalen-2-yl)propanamido)pentyl)carbamoyl)-L-glutamic acid], the “ADCC Reporter Assay pEC50” value was “Inactive^1”.

The same experiment, now with this note: anti-cotinine antibody (SEQ ID NO: 11/12), Jurkat FcγRIIIa NFAT-luciferase reporter cells, 12-18 hours, EC50 in molar, average if more than one run, read-out: ADCC Reporter Assay pEC50 (converted).
`CN1C(=O)C[C@H](C(=O)NCCO[C@H]2CC[C@H](OCCCC(=O)N[C@H]3CC[C@H](C(=O)N[C@@H](Cc4ccc5ccccc5c4)C(=O)NCCCC[C@H](NC(=O)N[C@@H](CCC(=O)O)C(=O)O)C(=O)O)CC3)CC2)[C@H]1c1cccnc1` (racemic) [Example 8, (((S)-1-Carboxy-5-((S)-2-((1R,4S)-4-(4-(((1S,4R)-4-(2-((2S,3S)-1-methyl-5-oxo-2-(pyridin-3-yl)pyrrolidine-3-carboxamido)ethoxy)cyclohexyl)oxy)butanamido)cyclohexane-1-carboxamido)-3-(naphthalen-2-yl)propanamido)pentyl)carbamoyl)-L-glutamic acid]: the EC50 was 2.24 nM.
Still for that read-out and setting: with `CN1C(=O)C[C@H](C(=O)NCCO[C@H]2CC[C@H](OCCCC(=O)N[C@H]3CC[C@H](C(=O)N4CCN(C(=O)CC[C@H](NC(=O)N[C@@H](CCC(=O)O)C(=O)O)C(=O)O)CC4)CC3)CC2)[C@H]1c1cccnc1` [Example 1, (((S)-1-Carboxy-4-(4-((1R,4R)-4-(4-(((1S,4R)-4-(2-((2S,3S)-1-methyl-5-oxo-2-(pyridin-3-yl)pyrrolidine-3-carboxamido)ethoxy)cyclohexyl)oxy)butanamido)cyclohexane-1-carbonyl)piperazin-1-yl)-4-oxobutyl)carbamoyl)-L-glutamic acid] the figure was 50.1 nM; with `CN1C(=O)C[C@H](C(=O)NCCO[C@H]2CC[C@H](OCCCC(=O)N[C@H]3CC[C@H](C(=O)N[C@H]4CC[C@@H](NC(=O)CC[C@H](NC(=O)N[C@@H](CCC(=O)O)C(=O)O)C(=O)O)CC4)CC3)CC2)[C@H]1c1cccnc1` [Example 2, (((S)-1-Carboxy-4-(((1S,4S)-4-((1R,4S)-4-(4-(((1S,4R)-4-(2-((2S,3S)-1-methyl-5-oxo-2-(pyridin-3-yl)pyrrolidine-3-carboxamido)ethoxy)cyclohexyl)oxy)butanamido)cyclohexane-1-carboxamido)cyclohexyl)amino)-4-oxobutyl)carbamoyl)-L-glutamic acid], 50.1 nM; with `CN1C(=O)C[C@H](C(=O)NCCO[C@H]2CC[C@H](OCCCC(=O)N[C@H]3CC[C@H](C(=O)NCCNC(=O)CC[C@H](NC(=O)N[C@@H](CCC(=O)O)C(=O)O)C(=O)O)CC3)CC2)[C@H]1c1cccnc1` [Example 3, (9S,13S)-1-((1R,4R)-4-(4-(((1S,4R)-4-(2-((2S,3S)-1-Methyl-5-oxo-2-(pyridin-3-yl)pyrrolidine-3-carboxamido)ethoxy)cyclohexyl)oxy)butanamido)cyclohexyl)-1,6,11-trioxo-2,5,10,12-tetraazapentadecane-9,13,15-tricarboxylic acid], 126 nM.
Take `CN1C(=O)C[C@H](C(=O)NCCO[C@H]2CC[C@H](OCCCC(=O)N[C@H]3CC[C@H](C(=O)N[C@H]4CC[C@H](NC(=O)CC[C@H](NC(=O)N[C@@H](CCC(=O)O)C(=O)O)C(=O)O)CC4)CC3)CC2)[C@H]1c1cccnc1` [Example 4, (((S)-1-Carboxy-4-(((1R,4R)-4-((1R,4R)-4-(4-(((1S,4R)-4-(2-((2S,3S)-1-methyl-5-oxo-2-(pyridin-3-yl)pyrrolidine-3-carboxamido)ethoxy)cyclohexyl)oxy)butanamido)cyclohexane-1-carboxamido)cyclohexyl)amino)-4-oxobutyl)carbamoyl)-L-glutamic acid]: the EC50 is 50.1 nM.
The same measure, in the same setting: next, `CN1C(=O)C[C@H](C(=O)NCCNC(=O)[C@H](Cc2ccccc2)NC(=O)[C@H](Cc2ccccc2)NC(=O)CCCCCCCNC(=O)CC[C@H](NC(=O)N[C@@H](CCC(=O)O)C(=O)O)C(=O)O)[C@H]1c1cccnc1` [Example 5, (7S,10S,24S,28S)-7,10-Dibenzyl-1-((2S,3S)-1-methyl-5-oxo-2-(pyridin-3-yl)pyrrolidin-3-yl)-1,6,9,12,21,26-hexaoxo-2,5,8,11,20,25,27-heptaazatriacontane-24,28,30-tricarboxylic acid]: 39.8 nM; `CN1C(=O)C[C@H](C(=O)NCCO[C@H]2CC[C@H](OCCCC(=O)N[C@H]3CC[C@H](C(=O)NCCNC(=O)[C@H](Cc4ccccc4)NC(=O)[C@H](Cc4ccccc4)NC(=O)CCCCCCCNC(=O)CC[C@H](NC(=O)N[C@@H](CCC(=O)O)C(=O)O)C(=O)O)CC3)CC2)[C@H]1c1cccnc1` [Example 6, (7S,10S,24S,28S)-7,10-dibenzyl-1-((1R,4S)-4-(4-(((1S,4R)-4-(2-((2S,3S)-1-methyl-5-oxo-2-(pyridin-3-yl)pyrrolidine-3-carboxamido)ethoxy)cyclohexyl)oxy)butanamido)cyclohexyl)-1,6,9,12,21,26-hexaoxo-2,5,8,11,20,25,27-heptaazatriacontane-24,28,30-tricarboxylic acid]: 39.8 nM.
Take `CN1C(=O)C[C@H](C(=O)NCCOCCOCCOCCOCCOCCOCCOCCOCCOCCOCCOCCOCCC(=O)NCCNC(=O)[C@H](Cc2ccccc2)NC(=O)[C@H](Cc2ccccc2)NC(=O)CCCCCCCNC(=O)CC[C@H](NC(=O)N[C@@H](CCC(=O)O)C(=O)O)C(=O)O)[C@H]1c1cccnc1` [Example 7, (47S,50S,64S,68S)-47,50-Dibenzyl-1-((2S,3S)-1-methyl-5-oxo-2-(pyridin-3-yl)pyrrolidin-3-yl)-1,41,46,49,52,61,66-heptaoxo-5,8,11,14,17,20,23,26,29,32,35,38-dodecaoxa-2,42,45,48,51,60,65,67-octaazaheptacontane-64,68,70-tricarboxylic acid]: the EC50 was 126 nM.
For the molecule `CN1C(=O)C[C@H](C(=O)NCCOCCOCCOCCOCCOCCOCCOCCOCCOCCOCCOCCOCCC(=O)N[C@@H](Cc2ccc3ccccc3c2)C(=O)NCCCC[C@H](NC(=O)N[C@@H](CCC(=O)O)C(=O)O)C(=O)O)[C@H]1c1cccnc1` [Example 9, (((S)-1-Carboxy-5-((S)-2-(1-((2S,3S)-1-methyl-5-oxo-2-(pyridin-3-yl)pyrrolidin-3-yl)-1-oxo-5,8,11,14,17,20,23,26,29,32,35,38-dodecaoxa-2-azahentetracontan-41-amido)-3-(naphthalen-2-yl)propanamido)pentyl)carbamoyl)-L-glutamic acid], the EC50 was 8.91 nM.

Values taken from patent US20250057827A1, “CYTOTOXICITY TARGETING CHIMERAS FOR PROSTATE SPECIFIC MEMBRANE ANTIGEN-EXPRESSING CELLS” (GLAXOSMITHKLINE INTELLECTUAL PROPERTY DEVELOPMENT LIMITED, priority 2022, published 2025).
